One data set concerns RnH9c2 cells. Put plainly: Trypanosoma cruzi intracellular assay (Assay 2), host cell cytotoxicity. The conditions noted are these: rat, H9C2 cardiomyocytes infected with Trypanosoma cruzi, 72 h incubation, read-out: cytotoxicity against RnH9c2 cells, pEC50 (converted). The format is cell-based. The procedure:
Compounds were dispensed into black 384-well assay plates (Greiner) by acoustic dispensing (LabCyte ECHO). For potency determinations, eleven-point, one in three dilution curves were generated, with a top concentration of 50 μM. H9C2 rat cardiomyocytes cells were dispensed in T225 tissue culture flasks and after 4 hours they were infected during 18 hours with T. cruzi trypomastigotes in the same T225 tissue culture flasks at a multiplicity of infection of 1. Next, any remaining free trypomastigotes were washed away with PBS and the infected H9C2 cells were harvested by trypsinisation. The infected H9C2 cells were then plated into 384-well plates containing the compounds to be tested, at 2500 cells per well in DMEM media with 2% FBS, 1% Penicillin/Streptomicin, 2 mM L-Glutamine, 1 mM Na Pyruvate and 25 mM HEPES. After 72 h incubation at 37° C. in presence of 5% CO2, the plates were fixed and stained with 4% formaldehyde and 2 μM Draq5 for 3 hours at room temperature. The plates were imaged on a Perkin Elmer Opera high-content imaging system using a 20× air objective. Images were analyzed using the Acapella building blocks system (Perkin Elmer). The image analysis algorithm first identified the H9C2 nuclei followed by demarcation of the cytoplasm and identification of intracellular amastigotes. This algorithm reported mean number of parasites per H9C2 cell, the percentage of infected H9C2 cells and the total number of H9C2 cells.

The test system of another data set is THP-1 cells. Put plainly: Leishmania donovani intracellular assay (Assay 5), THP-1 cytotoxicity. The format is cell-based. The conditions noted are these: human, 96 h incubation, read-out: cytotoxicity against THP-1 cells, pEC50 (converted). As to the method:
Assay 5. Leishmania donovani Intracellular Assay
Compounds were dispensed into black 384-well assay plates (Greiner) by acoustic dispensing (LabCyte ECHO). For potency determinations, eleven-point, one in three dilution curves were generated, with a top concentration of 50 μM. THP-1 human monocytes cells were dispensed in T225 tissue culture flasks and differentiated using 30 nM of PMA, after 24 hours they were infected overnight using Leishmania donovani expressing Green Fluorescent Protein (eGFP) amastigotes in the same T225 tissue culture flasks at a multiplicity of infection of 10. Next, any remaining free amastigotes were washed away with PBS and the infected THP-1 cells were harvested by trypsinisation. The infected cells were then plated into 384-well plates containing the compounds to be tested, at 3000 cells per well in RPMI media with 2% FBS and 25 mM Sodium bicarbonate. After 96 h incubation at 37° C. in presence of 5% CO2, the plates were fixed with 4% formaldehyde for 30 minutes, washed with PBS and stained with 0.1 mg/mL of DAPI for 30 minutes and washed again with PBS. The plates were imaged on a Perkin Elmer Opera high-content imaging system using a 20× air objective with two expositions, one for DAPI stain and other for eGFP. Images were analysed using the Acapella building blocks system (Perkin Elmer). The image analysis algorithm first identified the THP-1 nuclei followed by demarcation of the cytoplasm and identification of intracellular amastigotes. This algorithm reported mean number of parasites per THP-1 cell, the percentage of infected THP-1 cells and the total number of THP-1 cells.

The nature of data set [1]: Solubility assay, ChemiLuminescent Nitrogen Detection (CLND) (Assay 4). The format is physicochemical. The conditions noted are these: phosphate buffered saline (PBS) pH 7.4, aqueous buffer, kinetic from dmso stock, PBS pH 7.4, from 10 mM DMSO stock, 1 h at room temperature. As to the method:
Assay 4. Solubility Assay—ChemiLuminescent Nitrogen Detection (CLND) I. Compounds A 10 mM DMSO stock solution of the compound was prepared. Solvents and Buffers Organic solvents of HPLC grade were used. Ultra pure water (Milli-Q grade) was used. Buffers were prepared with ultra pure water and filtered using 0.45μ cameo filters. Aqueous Buffer Solution: Phosphate Buffer Saline (PBS) @ pH 7.4 was prepared from Sigma dry powder packs, P-3813. Each one was diluted to 1 liter with deionised water. The pH was checked before the solution was used II. Procedures. • a) DMSO concentration was measured. DMSO blanks and ondansetron and caffeine standards were added to the plate (column 12, A, B, C, & D for the blanks and E, F, G, & H for the standards). Plates were covered with foil. When the UV and CLND detectors baselines appeared to be stable, the CLND was zeroed. • b) Once DMSO concentration measurements were complete, a filtration plate was prepared from each parent plate by diluting 5 μl of the 10 mM DMSO stock solution to […] with pH7.4 PBS. • c) After the plates were prepared, they were covered with a plate lid and left to incubate for 1 h at room temperature. • d) Sample was filtered using MILLIPORE MultiScreen Solubility (MSSLBPC10) Filtration Plates, to NUNC V well plates. […]

Consider `O=C(Nc1ccc(F)c(-c2ccn3c(N4CCOCC4)cnc3n2)c1)N1CCCC1` [Example 4, N-(4-fluoro-3-(3-morpholinoimidazo[1,2-a]pyrimidin-7-yl)phenyl)pyrrolidine-1-carboxamide], for which the EC50 at 72 h in the data set on RnH9c2 cells was above 50.1 µM. Further, the EC50 at 96 h with THP-1 cells is above 50.1 µM. Moreover, in data set [1], the solubility at 1 h was above 444 µM.

Usually solubility stands for how much of the substance goes into solution per volume. A high value points to much dissolved substance.
